Source: PMC9647539, “Computational and functional studies of the PI(4,5)P2 binding site of the TRPM3 ion channel reveal interactions with other regulators” (The Journal of Biological Chemistry, 2022)

Assays:
[1] = target: T1, hTRPM3 or its mutant N991A (Homo sapiens, UniProt Q9HCF6, N1016A); test: Excised inside-out patch clamp, relative effect of PI(4)P compared to PI(4,5)P2; type: cell-based; conditions: 25 μM diC8 PI(4)P vs 25 μM diC8 PI(4,5)P2, 100 μM PregS in pipette
T1 construct: expressed in transfected cells; host or cells: Xenopus laevis oocytes (excised inside-out patches)
T1 sequence (Q9HCF6 1-1325 isoform Q9HCF6-10 N991A): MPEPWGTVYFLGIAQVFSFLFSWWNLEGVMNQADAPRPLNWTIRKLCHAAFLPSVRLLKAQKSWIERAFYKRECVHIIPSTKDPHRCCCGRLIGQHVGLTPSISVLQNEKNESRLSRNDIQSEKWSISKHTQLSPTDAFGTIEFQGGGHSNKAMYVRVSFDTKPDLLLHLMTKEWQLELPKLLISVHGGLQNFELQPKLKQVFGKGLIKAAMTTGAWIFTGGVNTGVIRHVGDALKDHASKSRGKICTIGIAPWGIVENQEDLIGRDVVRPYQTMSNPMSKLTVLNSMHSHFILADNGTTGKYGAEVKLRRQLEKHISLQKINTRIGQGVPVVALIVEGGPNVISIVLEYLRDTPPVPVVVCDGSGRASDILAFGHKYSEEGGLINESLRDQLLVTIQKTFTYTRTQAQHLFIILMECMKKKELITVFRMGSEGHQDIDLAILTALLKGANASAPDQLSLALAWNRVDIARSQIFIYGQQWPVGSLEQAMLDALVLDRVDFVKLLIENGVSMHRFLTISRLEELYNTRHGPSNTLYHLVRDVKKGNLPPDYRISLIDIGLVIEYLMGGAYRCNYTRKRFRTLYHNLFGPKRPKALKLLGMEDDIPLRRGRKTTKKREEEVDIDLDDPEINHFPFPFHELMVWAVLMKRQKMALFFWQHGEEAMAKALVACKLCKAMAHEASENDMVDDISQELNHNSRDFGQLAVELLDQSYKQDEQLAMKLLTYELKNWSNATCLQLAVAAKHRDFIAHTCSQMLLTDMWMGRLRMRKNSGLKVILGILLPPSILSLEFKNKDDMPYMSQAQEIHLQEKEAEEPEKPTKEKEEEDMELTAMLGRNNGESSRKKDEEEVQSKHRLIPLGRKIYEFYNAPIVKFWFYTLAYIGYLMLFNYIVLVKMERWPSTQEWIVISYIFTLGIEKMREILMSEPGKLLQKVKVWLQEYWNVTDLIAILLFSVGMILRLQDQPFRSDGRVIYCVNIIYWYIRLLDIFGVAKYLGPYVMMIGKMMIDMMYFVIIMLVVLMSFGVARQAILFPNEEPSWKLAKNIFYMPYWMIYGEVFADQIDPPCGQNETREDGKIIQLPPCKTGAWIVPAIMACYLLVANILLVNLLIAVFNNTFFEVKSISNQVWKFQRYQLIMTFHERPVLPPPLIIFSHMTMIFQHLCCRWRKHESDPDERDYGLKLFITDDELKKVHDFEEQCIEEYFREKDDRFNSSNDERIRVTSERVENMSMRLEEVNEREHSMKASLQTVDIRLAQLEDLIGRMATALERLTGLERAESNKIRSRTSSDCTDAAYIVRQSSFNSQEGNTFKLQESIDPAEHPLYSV
Description: Oocytes were placed in a recording chamber filled with bath solution, which contained 97 mM KCl, 5 mM EGTA, 10 mM Hepes, pH 7.4. Before starting measurements, the vitelline layer was carefully removed with forceps without damaging the oocyte. Then a giga-ohm seal was formed using a borosilicate glass pipette (World Precision Instruments) with resistance from 0.8 to 1 MΩ. The pipette was filled with a solution containing 97 mM NaCl, 2 mM KCl, 1 mM MgCl2, 5 mM Hepes, and 100 μM PregS at pH 7.4. Currents were measured by an Axopatch 200B amplifier and analyzed with the pClamp 9.0 software. Compounds were dissolved in the bath solution and delivered to the inner side of cell membrane by a custom-made gravity-driven perfusion system. Either 25 μM PI(4,5)P2, 25 μM PI(4)P, or 10 μM AASt PI(4,5)P2 was applied in these experiments to reactivate TRPM3. At the end of every recording, 30 μg/ml Poly-Lys (Poly-K) was applied.

[2] = system: Human TRPM3_1325 splice variant or its mutants; test: Wortmannin inhibition of PregS-induced currents (PI(4,5)P2 depletion), TEVC in Xenopus oocytes; type: cell-based; conditions: 35 μM wortmannin 2 h; for inhibition of PregS-induced currents after wortmannin treatment, compared with WT TRPM3: 100 mV; for inhibition of PregS-induced currents after wortmannin treatment, WT vs disease mutants: V990M and P1090Q
Description: Next, we mutated the predicted PI(4,5)P2-interacting residues in TRPM3 and tested the effects of the mutations on sensitivity to inhibition by decreasing PI(4,5)P2 levels. We expressed the WT and mutant channels in Xenopus oocytes and performed two-electrode voltage clamp (TEVC) experiments. We stimulated channel activity with 50 μM PregS and measured current amplitudes, then incubated the oocytes with 35 μM wortmannin for 2 h, and measured PregS-induced currents in the same oocytes (Fig. 3, A and B). Wortmannin at this concentration inhibits phosphatidylinositol 4-kinases and has been used to inhibit the activity of PI(4,5)P2-dependent ion channels ([39]). […] Mutating a PI(4,5)P2-interacting residue is expected to increase inhibition by high concentrations of wortmannin ([39]). […] We also generated two additional mutations in the TRP domain in residues that are not in contact with PI(4,5)P2, K1128Q and R1141Q.
(§1) To express exogenous proteins, RNA was microinjected into oocytes using a nanoliter-injector system (Warner Instruments). RNA was in vitro transcribed from the linearized pGEMSH vectors, which contained the complementary DNA clones for hTRPM3 ([38]) rat TRPM8, human M2 muscarinic (hM2) receptor, or Gβγ subunits by using the mMessage mMachine T7 Transcription Kit (Thermo Fisher Scientific). […] For coexpression of TRPM3 constructs and Gβ1γ2 subunits, 40 ng of TRPM3 was coinjected with 5 ng Gβ1 and 5 ng Gγ2. In the case of coexpressing TRPM3 and hM2 receptors, these two were injected at 1:1 ratio, 40 ng each. Oocytes were used for electrophysiological experiments after 48 to 72 h incubation at 16 °C after RNA injection.
(§2) Oocytes were placed in extracellular solution, which contained 97 mM NaCl, 2 mM KCl, 1 mM MgCl2, and 5 mM Hepes, pH 7.4. Currents were measured with a protocol consisting a voltage step from the 0 mV holding potential to −100 mV, followed by a ramp to 100 mV once every 0.5 s with a GeneClamp 500B amplifier and analyzed with the pClamp 9.0 software (Molecular Devices). Currents were recorded by thin wall glass pipettes that contained inner filament and were filled with 1% agarose in 3 M KCl. In all TEVC experiments, different concentrations of PregS were applied to activate TRPM3 channels, and various concentrations of menthol were used to trigger responses of TRPM8 channels. The hM2 receptor was activated by 5 μM acetylcholine. For wortmannin experiments specifically, PregS, or menthol-induced currents were measured, then the same oocyte was incubated with 35 μM wortmannin for 2 h, and currents were measured again using the same protocol. In the bar graphs in Figure 3, the individual panels show experiments that were performed on the same day.

[3] = system: Rat TRPM8 or its mutants; test: Wortmannin inhibition of menthol-induced currents (PI(4,5)P2 depletion), TEVC in Xenopus oocytes; type: cell-based; conditions: 35 μM wortmannin 2 h; 500 μM menthol; 100 mV; R851Q and W682Q mutants
Description: as §1, with “Oocytes were used for electrophysiological experiments after 48 to 72 h incubation at 16 °C after RNA injection.” left out
as §2, with “In all TEVC experiments, different concentrations of PregS were applied to activate TRPM3 channels, and various concentrations of menthol were used to trigger responses of TRPM8 channels. The hM2 receptor was activated by 5 μM acetylcholine.” left out, “In the bar graphs in Figure 3, the individual panels show experiments that were performed on the same day.” left out

[4] = system: Human TRPM3_1325 splice variant or its mutants; set-up: method as in PMID 26123195; conditions: 35 nM wortmannin (selectively inhibits PI3K); cited from earlier work
[5] = system: mouse TRPM3α2 (mTRPM3α2) or its mutant N993A; test: Whole-cell patch clamp with rapamycin-inducible pseudojanin phosphatase in HEK293 cells; type: cell-based; conditions: 100 nM rapamycin
Description: Human embryonic kidney 293 cells were purchased from American Type Culture Collection (catalog number: CRL-1573). Human embryonic kidney 293 cells were cultured in minimum essential medium supplemented with 10% fetal bovine serum and 100 IU/ml penicillin plus 100 μg/ml streptomycin. Cells were incubated in 5% CO2 at 37 °C. Cells were tested to confirm that they were not infected by mycoplasma. Cells were used up to 25 passages and then discarded. Cells were transiently transfected with complementary DNA encoding different TRPM3 constructs (200–400 ng) using the Effectene reagent (Qiagen). mTRPM3α2 and its mutant were cloned into the bicistronic pCAGGS/IRES-GFP vector. The components of rapamycin-inducible pseudojanin phosphatases ([40]) were cotransfected with mTRPM3α2 at 1:1 ratio.
After 24 h of transfection, cells were plated on poly-D-lysine–coated 12 mm cover slips. Experiments were performed 48 to 72 h after transfection. […] After formation of gigaohm-resistance seals, the whole cell configuration was established, and currents were recorded by applying a ramp protocol once every 1 s. […] Data were collected and analyzed with the pClamp10.6 (Clampex) acquisition software (Molecular Devices) and further analyzed and plotted with Prism 9 (GraphPad by Dotmatics). […]

[6] = system: Rat TRPM8 or its mutants; test: Menthol concentration dependence, TEVC in Xenopus oocytes; type: cell-based; conditions: 100 mV; R851A and W682Q mutants
Description: as §1, with “Oocytes were used for electrophysiological experiments after 48 to 72 h incubation at 16 °C after RNA injection.” left out
as §2, with “In all TEVC experiments, different concentrations of PregS were applied to activate TRPM3 channels, and various concentrations of menthol were used to trigger responses of TRPM8 channels. The hM2 receptor was activated by 5 μM acetylcholine.” left out, “In the bar graphs in Figure 3, the individual panels show experiments that were performed on the same day.” left out

[7] = system: TRPM3_1325 splice variant or its mutants; test: PregS concentration dependence, TEVC in Xenopus oocytes; type: cell-based, human; conditions: 100 mV; N991A and K992A mutants
Description: as §1, with “Oocytes were used for electrophysiological experiments after 48 to 72 h incubation at 16 °C after RNA injection.” left out
as §2, with “In all TEVC experiments, different concentrations of PregS were applied to activate TRPM3 channels, and various concentrations of menthol were used to trigger responses of TRPM8 channels. The hM2 receptor was activated by 5 μM acetylcholine.” left out, “In the bar graphs in Figure 3, the individual panels show experiments that were performed on the same day.” left out

[8] = system: hTRPM3; set-up: method as in PMID 32343227; conditions: hTRPM3 WT; read-out: EC50 concentration of PregS; cited from earlier work
[9] = system: hTRPM3 V990M; set-up: method as in PMID 32343227; conditions: V990M mutant; read-out: EC50 concentration of PregS; cited from earlier work
[10] = system: hTRPM3 P1090Q; set-up: method as in PMID 32343227; conditions: P1090Q mutant; read-out: EC50 concentration of PregS; cited from earlier work

With CCCCCCCC(=O)OC[C@H](COP(=O)(O)O[C@H]1[C@H](O)[C@@H](O)[C@H](OP(=O)(O)O)[C@@H](O)[C@H]1O)OC(=O)CCCCCCC [PI(4)P] the “relative effect of PI(4)P compared with PI(4,5)P2” value [1] was “did not change”.
With COC[C@H]1OC(=O)c2coc3c2[C@@]1(C)C1=C(C3=O)[C@@H]2CCC(=O)[C@@]2(C)C[C@H]1OC(C)=O [wortmannin] the “inhibition of PregS-induced currents after wortmannin treatment, compared with WT TRPM3” value ([2]; 50 μM PregS, R1141Q mutant) was “small but significant increase”, the “inhibition of PregS-induced currents after wortmannin treatment, compared with WT TRPM3” value ([2]; 50 μM PregS, mutants W761F, N991A, K992A and R1131Q) was “significantly higher inhibition” and the “inhibition of PregS-induced currents after wortmannin treatment, WT vs disease mutants” value ([2]; 50 μM PregS) was “inhibited to a similar extent”. The “inhibition of PregS-induced currents after wortmannin treatment, WT vs disease mutants” value ([2]; PregS at respective EC50 (17, 0.6, 7 μM)) was “inhibited to a similar extent to WT channels”, the “inhibition of menthol-induced currents by wortmannin, compared with WT TRPM8” value [3] was “significantly higher level of inhibition” and the “inhibition of TRPM3 by wortmannin” value [4] was “did not inhibit TRPM3”.
With CO[C@H]1C[C@@H]2CC[C@@H](C)[C@@](O)(O2)C(=O)C(=O)N2CCCC[C@H]2C(=O)O[C@H]([C@H](C)C[C@@H]2CC[C@@H](O)[C@H](OC)C2)CC(=O)[C@H](C)/C=C(\C)[C@@H](O)[C@@H](OC)C(=O)[C@H](C)C[C@H](C)/C=C/C=C/C=C/1C [rapamycin] the “inhibition by rapamycin (PI(4,5)P2 depletion), N993A compared with WT mTRPM3α2” value ([5]; currents induced by 25 μM PregS plus 10 μM clotrimazole) was “significantly larger inhibition” and the “inhibition by rapamycin (PI(4,5)P2 depletion), N993A compared with WT mTRPM3α2” value ([5]; currents stimulated with 25 μM PregS) was “significantly higher inhibition”.
For CC1CCC(C(C)C)C(O)C1 (centres unmarked) [menthol], the “menthol dose response, compared with WT TRPM8” value [6] was “right shifted”.
In the case of pregnenolone sulfate [PregS], the “PregS dose response, compared with WT TRPM3” value [7] is listed as “shifted the PregS dose response to the right”, the EC50 [8] is listed as 17 µM and the EC50 [9] is listed as 0.6 µM. For the same compound, the EC50 [10] was 7 µM.
